{"source": "patent US8809344B2", "about": "“Compounds, compositions, and methods for control of hepatitis C viral infections” (priority 2008, dated 2014)", "key": {"[1]": {"test_system": "stable genotype 1b (Con1 strain) subgenomic replicon", "test": "Log10 decrease in HCV replicon RNA in Clone VI cells, quantitative RT-PCR relative to GAPDH", "assay_type": "cell-based, hepatitis C virus", "details": "20 μM compound, 72 hours", "method": "To quantify the effect of compound on HCV RNA replicon levels by measuring HCV replicon RNA levels, the Clone VI cell line, a human hepatoma cell line that contains a stable genotype 1b (Con1 strain) subgenomic replicon with the adaptive Ser1179Ile mutation was used (U.S. Pat. No. 7,049,428). Cells were seeded into 12-well plates (40,000 cells per well) in the absence of Geneticin™ (Invitrogen, Carlsbad, Calif., USA) and treated in triplicate four hours later with 20 μM compound, with a final DMSO percentage of 1% in a total volume of 1 ml. Total RNA was extracted 72 hours later, and HCV and GAPDH RNA levels were quantified via quantitative RT-PCR. The log 10 decrease in HCV RNA levels was quantified relative to GAPDH RNA levels using the comparative Ct (threshold cycle) method (Applied Biosystems, Foster City, Calif., USA).\nAdditional compounds of formula (I) shown in FIG. 1 were also shown to inhibit HCV RNA replication. The effects of various compounds of formula (I) on HCV RNA replicon levels were determined by measuring HCV replicon RNA levels in cells treated with various concentrations of the compounds. […] Total RNA was extracted 72 hours later, and HCV and GAPDH RNA levels were quantified via quantitative RT-PCR. […]"}, "[2]": {"test_system": "parental genotype 1b (Con1 strain) subgenomic reporter replicon", "test": "Parental genotype 1b reporter replicon IVT RNA in Huh7.5 cells", "assay_type": "cell-based", "details": "Hepatitis C virus", "from_the_text": "(§1) To identify nucleotide changes that confer resistance to 80978, replicon RNA was reverse transcribed and amplified from total RNA extracted from 80978-resistant and control Clone A cells. […] One silent mutation at amino acid 1771 was also observed. Each mutation was introduced independently into a stable genotype 1b (Con1 strain) subgenomic reporter replicon plasmid via site-directed mutagenesis. […] The sequence of the wild type NS4B encoding sequence is provided as SEQ ID NO:1, the sequence of the mutated NS4B nucleotide sequence encoding the F1809V mutation is provided as SEQ ID NO:3, and the sequence of the mutated NS4B nucleotide sequence encoding the F1809L mutation is provided as SEQ ID NO:5. The sequence of the wild type NS4B protein is provided as SEQ ID NO:2, the sequence of the mutated NS4B protein with the F1809V mutation is provided as SEQ ID NO:4, and the sequence of the mutated NS4B nucleotide sequence encoding the F1809L mutation is provided as SEQ ID NO:6. […] A differential response was observed between cells electroporated with different replicon RNAs."}, "[3]": {"test_system": "genotype 1b (Con1 strain) replicon with NS4B F1809L mutation", "test": "F1809L mutant reporter replicon IVT RNA in Huh7.5 cells", "assay_type": "cell-based", "details": "Hepatitis C virus", "from_the_text": "as §1"}, "[4]": {"test_system": "genotype 2a replicon encoding genotype 1b NS4B amino acids 53-254", "test": "Chimeric genotype 1b/2a replicon (NS4B aa 53-254 from 1b) in Huh7.5 cells", "assay_type": "cell-based, hepatitis C virus", "from_the_text": "That NS4B is the target of 80978 was confirmed by a complementary approach. The differential response to 80978 by HCV genotype 1b and 2a replicons allowed the use of chimeric replicons to narrow down the region of the HCV genotype 1b NS4B coding region that confers sensitivity to 80978. The nucleotide sequence of the wild type HCV genotype 2a NS4B is provided as SEQ ID NO: 7 and the wild type HCV genotype 2a NS4B protein sequence is provided as SEQ ID NO:8. Using a plasmid containing an 80978-resistant stable HCV genotype 2a subgenomic reporter replicon cDNA, six replacement, or chimeric constructs were made, where the regions encoding the following amino acids of NS4B were replaced with the regions encoding the corresponding amino acids of NS4B from HCV genotype 1b: (i) 7-254, (ii) 7-52, (iii) 53-254, (iv) 219-254, (v) 7-52 and 219-254, and (vi) 53 to 218. The full-length NS4B protein is 261 amino acids in length and is provided as SEQ ID NO:2. Thus, if any of these segments of NS4B from genotype 1b are sufficient to confer 80978-sensitivity to a genotype 2a HCV replicon, it will render the chimeric genotype 1b/genotype 2a replicon sensitive to the compound.\nResponse to 80978 was measured initially in unselected cells. […] All of the chimeric and wild type control constructs were responsive to Cyclosporin A (CsA)."}}, "data": [{"smiles": "O=C(NCc1cccs1)c1nn2c(c1Cl)N[C@H](c1ccco1)C[C@@H]2C(F)(F)F", "note": "(single isomer, unassigned) [Compound 80978]", "values": [{"measurement": "Log RNA decrease at [μM]", "setting": "[1]", "result": "1.16 @ 20 μM"}, {"measurement": "EC50", "setting": "[2]", "result": 290, "unit": "nM"}, {"measurement": "EC50", "setting": "[3]", "result": "> 22500", "unit": "nM"}, {"measurement": "response to 80978", "setting": "[4]; Geneticin-selected stable replicon-containing cells, amino acids 53-254", "result": "responsive"}, {"measurement": "EC50", "setting": "[4]; Hepatitis C virus, Huh7.5", "result": "< 2500", "unit": "nM"}]}]}
